Experimental data published in paper PMC7701510, “Identification of HN252 as a potent inhibitor of protein phosphatase PPM1B” (Journal of Cellular and Molecular Medicine, 2020).
“Also recorded” adds a separate entry of the source.

Assays:
PHLPP2 = target: T1, PHLPP2 (Homo sapiens, UniProt Q6ZVD8); assay: pNPP hydrolysis phosphatase assay (selectivity panel); type: biochemical; conditions: pNPP as substrate
T1 sequence (Q6ZVD8 1-1323): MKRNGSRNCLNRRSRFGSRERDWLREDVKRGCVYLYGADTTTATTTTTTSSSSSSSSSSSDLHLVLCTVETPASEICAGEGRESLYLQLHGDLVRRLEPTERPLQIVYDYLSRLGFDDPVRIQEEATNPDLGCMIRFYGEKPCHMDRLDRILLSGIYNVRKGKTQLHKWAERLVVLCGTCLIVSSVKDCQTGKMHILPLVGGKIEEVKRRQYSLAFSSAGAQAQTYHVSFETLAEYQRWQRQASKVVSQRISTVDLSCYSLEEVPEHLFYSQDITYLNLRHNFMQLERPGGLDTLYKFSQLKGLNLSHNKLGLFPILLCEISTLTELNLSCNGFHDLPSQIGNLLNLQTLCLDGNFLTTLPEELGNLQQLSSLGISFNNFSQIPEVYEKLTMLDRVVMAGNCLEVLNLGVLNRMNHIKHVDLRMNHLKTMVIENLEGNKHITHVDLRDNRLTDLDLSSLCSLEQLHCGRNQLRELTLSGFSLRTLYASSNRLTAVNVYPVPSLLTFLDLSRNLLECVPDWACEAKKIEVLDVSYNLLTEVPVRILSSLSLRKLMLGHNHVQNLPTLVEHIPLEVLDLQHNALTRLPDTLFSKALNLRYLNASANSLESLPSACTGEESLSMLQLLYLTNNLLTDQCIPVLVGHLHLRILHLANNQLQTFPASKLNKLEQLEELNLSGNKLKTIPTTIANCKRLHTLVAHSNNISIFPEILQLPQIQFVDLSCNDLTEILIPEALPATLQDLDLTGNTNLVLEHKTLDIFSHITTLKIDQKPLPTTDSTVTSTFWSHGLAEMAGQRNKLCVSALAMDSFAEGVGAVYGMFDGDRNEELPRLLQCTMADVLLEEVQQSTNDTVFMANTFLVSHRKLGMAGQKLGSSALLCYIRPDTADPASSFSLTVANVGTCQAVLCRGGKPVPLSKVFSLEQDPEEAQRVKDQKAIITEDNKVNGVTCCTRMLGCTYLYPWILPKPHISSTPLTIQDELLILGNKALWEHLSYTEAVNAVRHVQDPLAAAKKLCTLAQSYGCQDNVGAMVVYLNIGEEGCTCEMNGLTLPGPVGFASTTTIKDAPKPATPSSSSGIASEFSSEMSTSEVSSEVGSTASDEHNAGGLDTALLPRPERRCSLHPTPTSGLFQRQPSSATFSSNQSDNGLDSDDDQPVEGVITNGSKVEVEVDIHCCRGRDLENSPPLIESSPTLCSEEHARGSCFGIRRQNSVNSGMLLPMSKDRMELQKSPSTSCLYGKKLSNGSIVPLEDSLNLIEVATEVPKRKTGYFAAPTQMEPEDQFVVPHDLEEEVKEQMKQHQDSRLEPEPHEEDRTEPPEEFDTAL

HL7702 cells [1] = assay: Phospho Explorer Antibody Microarray, HN252 treatment; type: cell-based; conditions: 2-hours exposure, HN252 5 μM
HL7702 cells [2] = assay: Western blot of protein phosphorylation after HN252 treatment; type: cell-based
Experimental: HL7702, COS7, PC‐3 and HCT116 cells were purchased from the Cell Bank of the Shanghai Institute for Biological Sciences, Chinese Academy of Science. HCT116, COS7 and PC3 cells were cultured in DMEM (Gibco); HL7702 cells were cultured in RPMI 1640 medium (Gibco). All media were supplemented with 10% foetal bovine serum (Biological Industries), 100 IU penicillin and […] streptomycin at 37°C in a humidified incubator with 5% CO2.

STEP = target: T2, STEP (Homo sapiens, UniProt P54829); assay: pNPP hydrolysis phosphatase assay (selectivity panel); type: biochemical; conditions: pNPP as substrate
T2 sequence (P54829 1-565): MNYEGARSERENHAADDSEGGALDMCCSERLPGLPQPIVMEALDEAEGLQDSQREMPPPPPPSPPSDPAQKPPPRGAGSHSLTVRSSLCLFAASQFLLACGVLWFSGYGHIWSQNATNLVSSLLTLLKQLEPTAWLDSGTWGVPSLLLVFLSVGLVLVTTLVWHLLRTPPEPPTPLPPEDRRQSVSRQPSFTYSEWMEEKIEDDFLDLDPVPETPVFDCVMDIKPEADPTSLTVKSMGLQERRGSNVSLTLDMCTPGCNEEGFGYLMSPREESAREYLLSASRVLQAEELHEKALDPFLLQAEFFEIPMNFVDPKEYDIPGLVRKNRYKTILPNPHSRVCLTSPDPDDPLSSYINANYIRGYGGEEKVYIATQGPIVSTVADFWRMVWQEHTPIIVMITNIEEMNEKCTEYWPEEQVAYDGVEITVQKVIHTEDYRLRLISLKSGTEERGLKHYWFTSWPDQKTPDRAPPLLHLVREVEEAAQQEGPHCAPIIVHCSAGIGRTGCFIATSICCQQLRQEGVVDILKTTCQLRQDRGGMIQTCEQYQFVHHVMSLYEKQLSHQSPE

PPM1A = target: T3, PPM1A (Homo sapiens, UniProt P35813); assay: as above; type: biochemical
T3 sequence (P35813 1-382): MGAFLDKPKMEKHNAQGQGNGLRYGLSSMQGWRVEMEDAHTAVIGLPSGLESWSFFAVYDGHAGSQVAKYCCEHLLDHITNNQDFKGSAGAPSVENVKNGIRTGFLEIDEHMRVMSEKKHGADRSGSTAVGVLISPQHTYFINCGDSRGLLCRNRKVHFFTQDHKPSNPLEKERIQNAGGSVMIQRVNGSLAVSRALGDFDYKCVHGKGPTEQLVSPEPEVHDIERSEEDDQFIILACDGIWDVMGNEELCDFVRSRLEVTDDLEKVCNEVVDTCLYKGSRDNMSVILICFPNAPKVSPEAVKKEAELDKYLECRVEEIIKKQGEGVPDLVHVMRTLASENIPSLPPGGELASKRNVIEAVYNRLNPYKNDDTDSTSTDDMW

[3] = immunoblotting, HN252 5 μM, 2 h

Nc1cc(-c2ccc(-c3ccc(O)c(O)c3)cc2)ccc1C(=O)O [HN252]
IC50 (PHLPP2): 20.9 ± 1.74 µM | number of proteins with enhanced phosphorylation (1.5-fold vs control) also elevated in PPM1B knockdown cells (HL7702 cells [1]): 30 | phosphorylation of JNK (HL7702 cells [2]; [3]): up‐regulated | phosphorylation of β-catenin (HL7702 cells [2]; [3]): enhanced phosphorylation | phosphorylation of AMPKα, CDK2 and p38 (HL7702 cells [2]; increasing concentration of HN252, 2 h): dramatically increased | IC50 (STEP): 91.1 ± 10.1 µM | inhibition pattern (PPM1A; Lineweaver-Burk plot, pNPP hydrolysis, pH 7.0, 37°C, 0.4 μM PPM1A): non-competitive inhibition; also recorded: non‐competitive inhibitor | IC50 (PPM1A; pNPP as substrate): 0.72 ± 0.22 µM
